Reference: patent US8397806B2, “Method for pre-treatment of subterranean sites adjacent to water injection wells” (E.I. du Pont de Nemours and Company, priority 2010, dated 2013)

How the values were obtained:
[1] = Example 4: 10% nitric acid titration of amine-coated core sand (29.065 gr sand/amine mixture) in 100 ml brine #2, amine in solution by GC
Description: (§1) Concentration of amines, in media and water, were analyzed by gas chromatography (GC). An Agilent Model 5890 (Agilent, Wilmington, Del.), GC equipped with a […] and a split/splitless injector, a DB-FFAP column (30 meter length×0.32 millimeter (mm) […]×0.25 micrometer particle size). […] The system was calibrated using a sample of N,N-Dimethyl-1-Dodecaneamine (Aldrich). Helium was used as the carrier gas. A temperature gradient of 50 degrees Celsius (° C.) to 250° C. at 30° C. increase per minute (min) was used.
The procedure outlined in Example 2 was used to produce the sand/amine mixture except that 519 mg of the amine, 10 gr of Pentane. and 60.062 gr of sand from the Oa and Ob layers were used. 29.065 gr of this sand/amine mixture was added to 100 ml of brine #2 (Table 3) to create the sand/amine/brine mixture. […] The concentration of the amine in the water should have been about […] if all the amine was dissolved in brine #2. […] 0.1 ml of 10 weight percent (wt %) nitric acid in water was added to this solution, and the pH and the amine concentration were measured again.

[2] = Example 5: 10% acetic acid titration of amine-coated core sand (30.85 gr sand/amine mixture) in 100 ml brine #2, amine in solution by GC
Description: as §1
The same procedure outlined in Example 4 was repeated here to produce the sand/amine mixture. 30.85 grams (gr) of the sand/amine mixture was added to 100 ml of brine #2 (Table 3) to create the sand/amine/brine mixture.

[3] = Example 2: 1N HCl titration of amine-coated core sand (38 mg amine on 10.18 gr sand) in 100 ml brine #2, amine in solution by GC; format: physicochemical
Description: Helium was used as the carrier gas.
38 milligrams (mg) of N N-Dimethyl-1-Dodecanamine (hereafter referred to as “the amine”) was added to 10.210 gr of Pentane. This solution was added to 10.1845 gr of specific sand layers (Oa and Ob) obtained from the Schrader Bluff formation of the Milne Point Unit of the Alaskan North slope. The oil content of the sand was first removed using a mixture of methanol and toluene (50/50, volume/volume) as solvent washes. The solvent mixture was subsequently evaporated off the core sand to produce clean, dry, flowable core sand. This sand was mixed with the amine and pentane solution to produce a slurry. This slurry was thoroughly mixed and the pentane was evaporated off leaving the amine on the sand (hereafter referred to as sand/amine mixture). 100 ml of brine #2 (Table 3) was added to the sand/amine mixture to create the sand/amine/brine mixture. […] The fact that the amine was not detected underlined its strong binding to the sand particles. […] The data underlines the remarkable efficiency of an acid at ionizing and removing the amine from the sand.

CCCCCCCCCCCCN(C)C [N-N-dimethyl-1-dodeanamine, N N-Dimethyl-1-Dodecanamine]
ppm N-N-dimethyl-1-dodeanamine ([1]; sample 1, pH 8.13, +0.1 ml 10% HNO3): 110 ppm | ppm N-N-dimethyl-1-dodeanamine ([1]; sample 2, pH 7.72, +0.1 ml 10% HNO3): 211 ppm | ppm N-N-dimethyl-1-dodeanamine ([1]; sample 3, pH 7.42, +0.1 ml 10% HNO3): 216 ppm | ppm N-N-dimethyl-1-dodeanamine ([1]; sample 4, pH 7.25, +0.1 ml 10% HNO3): 235 ppm | ppm N-N-dimethyl-1-dodeanamine ([1]; sample 5, pH 7.2, +0.1 ml 10% HNO3): 540 ppm | ppm N-N-dimethyl-1-dodeanamine ([1]; sample 6, pH 7.29, +0.1 ml 10% HNO3): 745 ppm | ppm N-N-dimethyl-1-dodeanamine ([1]; sample 7, pH 7.33, +0.1 ml 10% HNO3): 1153 ppm | ppm N-N-dimethyl-1-dodeanamine ([1]; sample 8, pH 7.29, +0.1 ml 10% HNO3): 1210 ppm | ppm N-N-dimethyl-1-dodeanamine ([1]; sample 9, pH 7.18, +0.1 ml 10% HNO3): 1327 ppm | ppm N-N-dimethyl-1-dodeanamine ([1]; sample 10, pH 7.11, +0.1 ml 10% HNO3): 1315 ppm | ppm N-N-dimethyl-1-dodeanamine ([1]; sample 11, pH 6.99, +0.1 ml 10% HNO3): 1413 ppm | ppm N-N-dimethyl-1-dodeanamine ([1]; sample 12, pH 6.85, +0.1 ml 10% HNO3): 1667 ppm | ppm N-N-dimethyl-1-dodeanamine ([1]; sample 13, pH 6.73, +0.1 ml 10% HNO3): 1897 ppm | ppm N-N-dimethyl-1-dodeanamine ([1]; sample 14, pH 6.64, +0.1 ml 10% HNO3): 1853 ppm | ppm N-N-dimethyl-1-dodeanamine ([1]; sample 15, pH 6.59, +0.1 ml 10% HNO3): 1858 ppm | ppm N-N-dimethyl-1-dodeanamine ([1]; sample 16, pH 6.28, +0.2 ml 10% HNO3): 1788 ppm | ppm N-N-dimethyl-1-dodeanamine ([1]; sample 17, pH 5.8, +0.2 ml 10% HNO3): 1822 ppm | ppm N-N-dimethyl-1-dodeanamine ([1]; sample 18, pH 3.46, +0.2 ml 10% HNO3): 1975 ppm | ppm N-N-dimethyl-1-dodeanamine ([1]; sample start, pH 8.28, 0 ml 10% HNO3): ~85 ppm | pH at which complete ionization and solubilization in the water of the amine was observed ([1]; titration with 10 wt % nitric acid): < 6.7 | ppm N-N-dimethyl-1-dodeanamine ([2]; sample 1, pH 8.01, +0.1 ml 10% acetic acid): 63 ppm | ppm N-N-dimethyl-1-dodeanamine ([2]; sample 2, pH 7.41, +0.1 ml 10% acetic acid): 107 ppm | ppm N-N-dimethyl-1-dodeanamine ([2]; sample 3, pH 7.4, +0.1 ml 10% acetic acid): 215 ppm | ppm N-N-dimethyl-1-dodeanamine ([2]; sample 4, pH 7.37, +0.1 ml 10% acetic acid): 497 ppm | ppm N-N-dimethyl-1-dodeanamine ([2]; sample 5, pH 7.23, +0.1 ml 10% acetic acid): 512 ppm | ppm N-N-dimethyl-1-dodeanamine ([2]; sample 6, pH 7.12, +0.1 ml 10% acetic acid): 969 ppm | ppm N-N-dimethyl-1-dodeanamine ([2]; sample 7, pH 6.98, +0.1 ml 10% acetic acid): 1239 ppm | ppm N-N-dimethyl-1-dodeanamine ([2]; sample 8, pH 6.89, +0.1 ml 10% acetic acid): 1453 ppm | ppm N-N-dimethyl-1-dodeanamine ([2]; sample 9, pH 6.75, +0.1 ml 10% acetic acid): 1583 ppm | ppm N-N-dimethyl-1-dodeanamine ([2]; sample 10, pH 6.56, +0.1 ml 10% acetic acid): 1579 ppm | ppm N-N-dimethyl-1-dodeanamine ([2]; sample 11, pH 6.39, +0.1 ml 10% acetic acid): 1616 ppm | ppm N-N-dimethyl-1-dodeanamine ([2]; sample 12, pH 6.4, +0.1 ml 10% acetic acid): 1759 ppm | ppm N-N-dimethyl-1-dodeanamine ([2]; sample 13, pH 6.02, +0.2 ml 10% acetic acid): 1736 ppm | ppm N-N-dimethyl-1-dodeanamine ([2]; sample 14, pH 5.4, +0.2 ml 10% acetic acid): 1718 ppm | ppm N-N-dimethyl-1-dodeanamine ([2]; sample 15, pH 5.04, +0.2 ml 10% acetic acid): 1743 ppm | ppm N-N-dimethyl-1-dodeanamine ([2]; sample 16, pH 4.86, +0.2 ml 10% acetic acid): 1931 ppm | ppm N-N-dimethyl-1-dodeanamine ([2]; sample 17, pH 4.73, +0.2 ml 10% acetic acid): 1995 ppm | ppm N-N-dimethyl-1-dodeanamine ([2]; sample 18, pH 4.61, +0.2 ml 10% acetic acid): 1913 ppm | ppm N-N-dimethyl-1-dodeanamine ([2]; sample 19, pH 4.52, +0.2 ml 10% acetic acid): 1881 ppm | ppm N-N-dimethyl-1-dodeanamine ([2]; sample 20, pH 4.43, +0.2 ml 10% acetic acid): 1837 ppm | ppm N-N-dimethyl-1-dodeanamine ([2]; sample 21, pH 4.36, +0.3 ml 10% acetic acid): 1885 ppm | ppm N-N-dimethyl-1-dodeanamine ([2]; sample start, pH 8.52, 0 ml 10% acetic acid): ~67 ppm | pH at which complete ionization and solubilization in the water of the amine was observed ([2]; titration with 10 wt % acetic acid): < 6.7 | First derivative (change in amine/change in pH) ([3]; sample Amine titrate 1, pH 7.37): 63.75 | N-N-dimethyl-1-dodeanamine (ppm) in slim tube effluent ([3]; sample Amine titrate 1, pH 7.37, +0.10 ml 1N HCl): 46.41 ppm | First derivative (change in amine/change in pH) ([3]; sample Amine titrate 2, pH 7.21): 63.42 | N-N-dimethyl-1-dodeanamine (ppm) in slim tube effluent ([3]; sample Amine titrate 2, pH 7.21, +0.10 ml 1N HCl): 59.29 ppm | First derivative (change in amine/change in pH) ([3]; sample Amine titrate 3, pH 7.03): 24.34 | N-N-dimethyl-1-dodeanamine (ppm) in slim tube effluent ([3]; sample Amine titrate 3, pH 7.03, +0.10 ml 1N HCl): 67.97 ppm | First derivative (change in amine/change in pH) ([3]; sample Amine titrate 4, pH 6.59): 160.35 | N-N-dimethyl-1-dodeanamine (ppm) in slim tube effluent ([3]; sample Amine titrate 4, pH 6.59, +0.10 ml 1N HCl): 74.38 ppm | First derivative (change in amine/change in pH) ([3]; sample Amine titrate 5, pH 6.13): 412.18 | N-N-dimethyl-1-dodeanamine (ppm) in slim tube effluent ([3]; sample Amine titrate 5, pH 6.13, +0.10 ml 1N HCl): 212.28 ppm | First derivative (change in amine/change in pH) ([3]; sample Amine titrate 6, pH 6.07): 679.86 | N-N-dimethyl-1-dodeanamine (ppm) in slim tube effluent ([3]; sample Amine titrate 6, pH 6.07, +0.10 ml 1N HCl): 288.72 ppm | First derivative (change in amine/change in pH) ([3]; sample Amine titrate 7, pH 6.04): −148.78 | N-N-dimethyl-1-dodeanamine (ppm) in slim tube effluent ([3]; sample Amine titrate 7, pH 6.04, +0.05 ml 1N HCl): 273.47 ppm | First derivative (change in amine/change in pH) ([3]; sample Amine titrate 8, pH 5.98): 119.35 | N-N-dimethyl-1-dodeanamine (ppm) in slim tube effluent ([3]; sample Amine titrate 8, pH 5.98, +0.05 ml 1N HCl): 275.33 ppm | First derivative (change in amine/change in pH) ([3]; sample Amine titrate 9, pH 5.79): 65.90 | N-N-dimethyl-1-dodeanamine (ppm) in slim tube effluent ([3]; sample Amine titrate 9, pH 5.79, +0.05 ml 1N HCl): 303.31 ppm | First derivative (change in amine/change in pH) ([3]; sample Amine titrate 10, pH 5.39): 15.17 | N-N-dimethyl-1-dodeanamine (ppm) in slim tube effluent ([3]; sample Amine titrate 10, pH 5.39, +0.05 ml 1N HCl): 314.21 ppm | First derivative (change in amine/change in pH) ([3]; sample Amine titrate 11, pH 4.13): 3.24 | N-N-dimethyl-1-dodeanamine (ppm) in slim tube effluent ([3]; sample Amine titrate 11, pH 4.13, +0.05 ml 1N HCl): 328.48 ppm | First derivative (change in amine/change in pH) ([3]; sample Amine titrate 12, pH 3.19): 11.80 | N-N-dimethyl-1-dodeanamine (ppm) in slim tube effluent ([3]; sample Amine titrate 12, pH 3.19, +0.05 ml 1N HCl): 321.33 ppm | First derivative (change in amine/change in pH) ([3]; sample Amine titrate 13, pH 2.91): 47.42 | N-N-dimethyl-1-dodeanamine (ppm) in slim tube effluent ([3]; sample Amine titrate 13, pH 2.91, +0.05 ml 1N HCl): 342.88 ppm | First derivative (change in amine/change in pH) ([3]; sample Amine titrate 14, pH 2.74): −6.52 | N-N-dimethyl-1-dodeanamine (ppm) in slim tube effluent ([3]; sample Amine titrate 14, pH 2.74, +0.05 ml 1N HCl): 342.67 ppm | First derivative (change in amine/change in pH) ([3]; sample Amine titrate 15, pH 2.61): 79.86 | N-N-dimethyl-1-dodeanamine (ppm) in slim tube effluent ([3]; sample Amine titrate 15, pH 2.61, +0.05 ml 1N HCl): 340.92 ppm | First derivative (change in amine/change in pH) ([3]; sample Amine titrate 16, pH 2.41): 80.22 | N-N-dimethyl-1-dodeanamine (ppm) in slim tube effluent ([3]; sample Amine titrate 16, pH 2.41, +0.10 ml 1N HCl): 369.02 ppm | First derivative (change in amine/change in pH) ([3]; sample Amine titrate 17, pH 2.27): 2.25 | N-N-dimethyl-1-dodeanamine (ppm) in slim tube effluent ([3]; sample Amine titrate 17, pH 2.27, +0.10 ml 1N HCl): 368.19 ppm | First derivative (change in amine/change in pH) ([3]; sample Amine titrate 18, pH 2.18): 7.51 | N-N-dimethyl-1-dodeanamine (ppm) in slim tube effluent ([3]; sample Amine titrate 18, pH 2.18, +0.10 ml 1N HCl): 369.54 ppm | First derivative (change in amine/change in pH) ([3]; sample Amine titrate 19, pH 2.10): 0.12 | N-N-dimethyl-1-dodeanamine (ppm) in slim tube effluent ([3]; sample Amine titrate 19, pH 2.10, +0.10 ml 1N HCl): 369.47 ppm | N-N-dimethyl-1-dodeanamine (ppm) in slim tube effluent ([3]; sample Amine titrate 20, pH 2.04, +0.10 ml 1N HCl): 369.56 ppm | N-N-dimethyl-1-dodeanamine (ppm) in slim tube effluent ([3]; sample Amine titrate st, pH 8.14, 0.00 ml 1N HCl): 0.00 ppm | N-N-dimethyl-1-dodeanamine (ppm) in slim tube effluent ([3]; sample Amine titrate st, pH 8.14, 0.00 ml 1N HCl, listed as N N-Dimethyl-1-Dodecanamine): < 1 ppm | pH at which complete ionization and solubilization of the amine in the water was observed ([3]; titration with 1N HCl): < 6.0
